Experimental findings from patent publication US20240158392A1 (Janssen Biotech, Inc., priority 2021, published 2024) are described below.

The experiment deals with SIK2 (Homo sapiens, UniProt Q9H0K1). The experiment in a line: SIK2 Enzymatic Assay High Version 2 (High ATP). Format: biochemical. The following applies: enzyme 6 nM, 6 mM ATP and 400 μM HDAC5tide (each 2× final concentration); 30 minutes pre-incubation, 2 hours; ADP-Glo Max luminescence; read-out: SIK2 high ATP IC50 (μM) (Test Example 2). In a few lines: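 At room temperature, enzyme (6 nM, 2× final) was preincubated with compound for 30 min, then 6 mM ATP and 400 μM HDAC5tide (both 2× final) were added for 2 h. ADP formed was measured by ADP-Glo Max (2 h reagent, 1 h detection) using luminescence.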
(In general: In ADP-Glo the light output rises with the ADP produced.)

The structures appear in SMILES notation. Where only a bound is given, the exact number is not on record here.

SIK2, sequence (Q9H0K1 whole entry, species assumed): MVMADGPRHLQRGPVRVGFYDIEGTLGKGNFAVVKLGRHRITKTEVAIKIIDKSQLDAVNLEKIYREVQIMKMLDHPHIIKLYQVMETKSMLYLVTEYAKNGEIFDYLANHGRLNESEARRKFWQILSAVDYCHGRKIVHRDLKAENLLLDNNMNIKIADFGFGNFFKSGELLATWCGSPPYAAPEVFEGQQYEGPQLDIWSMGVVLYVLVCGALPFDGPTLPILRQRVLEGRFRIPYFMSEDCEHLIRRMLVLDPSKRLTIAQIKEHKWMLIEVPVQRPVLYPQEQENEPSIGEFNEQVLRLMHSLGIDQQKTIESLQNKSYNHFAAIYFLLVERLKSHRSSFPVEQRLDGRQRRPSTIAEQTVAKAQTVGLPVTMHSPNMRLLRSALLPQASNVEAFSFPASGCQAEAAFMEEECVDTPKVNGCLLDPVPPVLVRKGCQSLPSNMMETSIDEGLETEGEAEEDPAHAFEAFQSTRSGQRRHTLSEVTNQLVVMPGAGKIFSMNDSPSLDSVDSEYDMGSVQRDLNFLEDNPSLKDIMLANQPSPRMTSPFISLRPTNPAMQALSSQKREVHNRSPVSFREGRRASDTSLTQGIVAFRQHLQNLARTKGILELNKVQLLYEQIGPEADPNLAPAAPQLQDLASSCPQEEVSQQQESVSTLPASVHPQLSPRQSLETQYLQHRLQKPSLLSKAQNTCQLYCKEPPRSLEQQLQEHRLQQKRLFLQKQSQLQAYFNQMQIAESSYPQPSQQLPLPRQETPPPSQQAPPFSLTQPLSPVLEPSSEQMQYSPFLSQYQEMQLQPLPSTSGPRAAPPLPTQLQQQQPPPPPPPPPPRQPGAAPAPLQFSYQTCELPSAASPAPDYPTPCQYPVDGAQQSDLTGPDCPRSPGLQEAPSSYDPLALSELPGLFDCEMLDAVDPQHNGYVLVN

Take `Cc1cc(-c2ccn3nc(Nc4cc(C)c(C)nn4)cc3c2)c(OCC(C)(C)O)cn1` [Example 201, 1-[[4-[2-[(5,6-dimethylpyridazin-3-yl)amino]pyrazolo[1,5-a]pyridin-5-yl]-6-methyl-3-pyridyl]oxy]-2-methyl-propan-2-ol]: the IC50 (usually the concentration at which inhibition is half-maximal) stood at 0.0641 µM.
With `CCc1nc(C)cc(Nc2cc3cc(-c4cc(C)ncc4OCC(C)(C)O)ccn3n2)n1` [Example 202, 1-[[4-[2-[(2-ethyl-6-methyl-pyrimidin-4-yl)amino]pyrazolo[1,5-a]pyridin-5-yl]-6-methyl-3-pyridyl]oxy]-2-methyl-propan-2-ol], the IC50 is 0.00758 µM.
With `Cc1cc(-c2ccn3nc(Nc4cc(C)nc(C)n4)cc3c2)c(OC[C@H]2C[C@@H](O)CO2)cn1` [Example 204, (3R,5R)-5-[[4-[2-[(2,6-dimethylpyrimidin-4-yl)amino]pyrazolo[1,5-a]pyridin-5-yl]-6-methyl-3-pyridyl]oxymethyl]tetrahydrofuran-3-ol] the figure was 0.087 µM; with `COCc1nc(C)cc(Nc2cc3cc(-c4cc(C)ncc4OCC(C)(C)O)ccn3n2)n1` [Example 205, 1-[[4-[2-[[2-(methoxymethyl)-6-methyl-pyrimidin-4-yl]amino]pyrazolo[1,5-a]pyridin-5-yl]-6-methyl-3-pyridyl]oxy]-2-methyl-propan-2-ol], 0.0181 µM.
To `Cc1cc(-c2ccn3nc(Nc4cc(C)c(=O)[nH]n4)cc3c2)c(OCC(C)(C)O)cn1` [Example 208, 3-[[5-[5-(2-hydroxy-2-methyl-propoxy)-2-methyl-4-pyridyl]pyrazolo[1,5-a]pyridin-2-yl]amino]-5-methyl-1H-pyridazin-6-one] belongs 0.00856 µM.
For `Cc1cc(-c2ccn3nc(Nc4cc(C)c(=O)n(C)n4)cc3c2)c(OCC(C)(C)O)cn1` [Example 209, 6-[[5-[5-(2-hydroxy-2-methyl-propoxy)-2-methyl-4-pyridyl]pyrazolo[1,5-a]pyridin-2-yl]amino]-2,4-dimethyl-pyridazin-3-one], the IC50 came to 0.0171 µM.
As to `Cc1cc(-c2ccn3nc(Nc4cc(C)nc(C)n4)cc3c2)c(OCC2(O)CCC2)cn1` [Example 217, 1-[[4-[2-[(2,6-dimethylpyrimidin-4-yl)amino]pyrazolo[1,5-a]pyridin-5-yl]-6-methyl-3-pyridyl]oxymethyl]cyclobutanol], the IC50 turned out to be 0.0279 µM.
To `Cc1cc(-c2ccn3nc(Nc4cc(C)nc(C)n4)cc3c2)c(OC[C@H]2OCC[C@@H]2O)cn1` [Example 218, (2R,3S)-2-[[4-[2-[(2,6-dimethylpyrimidin-4-yl)amino]pyrazolo[1,5-a]pyridin-5-yl]-6-methyl-3-pyridyl]oxymethyl]tetrahydrofuran-3-ol] belongs 0.00407 µM.
To `Cc1cc(-c2ccn3nc(NC(=O)C4CC4)cc3c2)c(OCC2(C#N)CNC2)cn1` [Example 221, N-[5-[5-[(3-cyanoazetidin-3-yl)methoxy]-2-methyl-4-pyridyl]pyrazolo[1,5-a]pyridin-2-yl]cyclopropanecarboxamide] belongs 0.00234 µM.
To `CCc1nc(C)cc(Nc2cc3cc(-c4cc(C)ncc4O[C@H]4CC[C@H](O)CC4)ccn3n2)n1` [Example 224, (1r,4r)-4-((4-(2-((2-ethyl-6-methylpyrimidin-4-yl)amino)pyrazolo[1,5-a]pyridin-5-yl)-6-methylpyridin-3-yl)oxy)cyclohexan-1-ol] belongs 0.00127 µM; to `COCc1nc(C)cc(Nc2cc3cc(-c4cc(C)ncc4O[C@H]4CC[C@H](O)CC4)ccn3n2)n1` [Example 225, (1r,4r)-4-((4-(2-((2-(methoxymethyl)-6-methylpyrimidin-4-yl)amino)pyrazolo[1,5-a]pyridin-5-yl)-6-methylpyridin-3-yl)oxy)cyclohexan-1-ol], 0.00343 µM; to `Cc1cc(-c2ccn3nc(Nc4cc(C)c(=O)n(C)n4)cc3c2)c(O[C@H]2CC[C@H](O)CC2)cn1` [Example 226, 6-((5-(5-(((1r,4r)-4-hydroxycyclohexyl)oxy)-2-methylpyridin-4-yl)pyrazolo[1,5-a]pyridin-2-yl)amino)-2,4-dimethylpyridazin-3(2H)-one], 0.00126 µM.
For `CNc1nc(C)cc(Nc2cc3cc(-c4cc(C)ncc4O[C@H]4CC[C@H](O)CC4)ccn3n2)n1` [Example 227, (1r,4r)-4-((6-methyl-4-(2-((6-methyl-2-(methylamino)pyrimidin-4-yl)amino)pyrazolo[1,5-a]pyridin-5-yl)pyridin-3-yl)oxy)cyclohexan-1-ol], the IC50 was under 0.000847 µM.
In the case of `CNc1nc(C)cc(Nc2cc3cc(-c4cc(C)ncc4OCC(C)(C)O)ccn3n2)n1` [Example 228, 2-methyl-1-[[6-methyl-4-[2-[[6-methyl-2-(methylamino)pyrimidin-4-yl]amino]pyrazolo[1,5-a]pyridin-5-yl]-3-pyridyl]oxy]propan-2-ol], the IC50 turned out to be 0.00167 µM.
As for `Cc1cc(-c2ccn3nc(Nc4cc(C)nc(C5CC5)n4)cc3c2)c(OCC(C)(C)O)cn1` [Example 229, 1-[[4-[2-[(2-cyclopropyl-6-methyl-pyrimidin-4-yl)amino]pyrazolo[1,5-a]pyridin-5-yl]-6-methyl-3-pyridyl]oxy]-2-methyl-propan-2-ol], the half-inhibitory concentration (IC50) came out at 0.00587 µM.
Regarding `COC1(COc2cnc(C)cc2-c2ccn3nc(NC(=O)C4CC4)cc3c2)CNC1` [Example 233, N-[5-[5-[(3-methoxyazetidin-3-yl)methoxy]-2-methyl-4-pyridyl]pyrazolo[1,5-a]pyridin-2-yl]cyclopropanecarboxamide], the IC50 stood at 0.00309 µM.
With `Cc1cc(-c2ccn3nc(NC(=O)[C@@H]4C[C@H]4C)cc3c2)c(OC[C@@]23CN[C@@H](CO2)C3)cn1` [Example 234, (1R,2R)-2-methyl-N-[5-[2-methyl-5-[[(1R,4R)-5-oxa-2-azabicyclo[2.2.1]heptan-4-yl]methoxy]-4-pyridyl]pyrazolo[1,5-a]pyridin-2-yl]cyclopropanecarboxamide] the figure was 0.00837 µM.
Turning to `Cc1cc(-c2ccn3nc(Nc4ccc(C5CC5)nn4)cc3c2)c(OC[C@]23C[C@H](CO2)N(C)C3)cn1` [Example 235, N-(6-cyclopropylpyridazin-3-yl)-5-[2-methyl-5-[[(1R,4R)-2-methyl-5-oxa-2-azabicyclo[2.2.1]heptan-4-yl]methoxy]-4-pyridyl]pyrazolo[1,5-a]pyridin-2-amine], the IC50 was determined as 0.0199 µM.
To `Cc1cnc(Nc2cc3cc(-c4cc(C)ncc4OC[C@]45C[C@H](CO4)N(C)C5)ccn3n2)cn1` [Example 236, 5-[2-methyl-5-[[(1R,4R)-2-methyl-5-oxa-2-azabicyclo[2.2.1]heptan-4-yl]methoxy]-4-pyridyl]-N-(5-methylpyrazin-2-yl)pyrazolo[1,5-a]pyridin-2-amine] belongs 0.0172 µM; to `Cc1cc(-c2ccn3nc(NC(=O)C4CC4)cc3c2)c(OC[C@@]23C[C@@H](CO2)N(C)C3)cn1` [Example 237, N-[5-[2-methyl-5-[[(1S,4S)-2-methyl-5-oxa-2-azabicyclo[2.2.1]heptan-4-yl]methoxy]-4-pyridyl]pyrazolo[1,5-a]pyridin-2-yl]cyclopropanecarboxamide], 0.0282 µM.
Consider `Cc1cc(-c2ccn3nc(Nc4cc(C)nc(C)n4)cc3c2)c(OC[C@@]23CN[C@@H](CO2)C3)cn1` [Example 238, N-(2,6-dimethylpyrimidin-4-yl)-5-[2-methyl-5-[[(1R,4R)-5-oxa-2-azabicyclo[2.2.1]heptan-4-yl]methoxy]-4-pyridyl]pyrazolo[1,5-a]pyridin-2-amine], for which the 50% inhibitory concentration (IC50) turned out to be 0.00226 µM.
To `Cc1cc(-c2ccn3nc(Nc4ccc5cc[nH]c5n4)cc3c2)c(O[C@H]2CC[C@H](O)CC2)cn1` [Example 239, 4-[[6-methyl-4-[2-(1H-pyrrolo[2,3-b]pyridin-6-ylamino)pyrazolo[1,5-a]pyridin-5-yl]-3-pyridyl]oxy]cyclohexanol] belongs 0.00245 µM; to `Cc1cc(-c2ccn3nc(Nc4ccc5cc[nH]c5n4)cc3c2)c(OCC(C)(C)O)cn1` [Example 240, 2-methyl-1-[[6-methyl-4-[2-(1H-pyrrolo[2,3-b]pyridin-6-ylamino)pyrazolo[1,5-a]pyridin-5-yl]-3-pyridyl]oxy]propan-2-ol], 0.016 µM; to `COc1cc(Nc2cc3cc(-c4cc(C)ncc4O[C@H]4CC[C@H](O)CC4)ccn3n2)cc(OC)c1C(=O)NCC(F)(F)F` [Example 241, 4-[[5-[5-(4-hydroxycyclohexoxy)-2-methyl-4-pyridyl]pyrazolo[1,5-a]pyridin-2-yl]amino]-2,6-dimethoxy-N-(2,2,2-trifluoroethyl)benzamide], 0.0401 µM.
To `COc1cc(Nc2cc3cc(-c4cc(C)ncc4O[C@H]4CC[C@H](O)CC4)ccn3n2)ccc1C(=O)NC1CC1` [Example 242, N-cyclopropyl-4-[[5-[5-(4-hydroxycyclohexoxy)-2-methyl-4-pyridyl]pyrazolo[1,5-a]pyridin-2-yl]amino]-2-methoxy-benzamide] belongs 0.0448 µM; to `CCNC(=O)c1c(OC)cc(Nc2cc3cc(-c4cc(C)ncc4O[C@H]4CC[C@H](O)CC4)ccn3n2)cc1OC` [Example 243, N-ethyl-4-[[5-[5-(4-hydroxycyclohexoxy)-2-methyl-4-pyridyl]pyrazolo[1,5-a]pyridin-2-yl]amino]-2,6-dimethoxy-benzamide], 0.0351 µM; to `Cc1cc(Nc2cc3cc(-c4cc(C)ncc4OCC(C)(C)O)ccn3n2)nc(C(=O)N(C)C)c1` [Example 244, 6-[[5-[5-(2-hydroxy-2-methyl-propoxy)-2-methyl-4-pyridyl]pyrazolo[1,5-a]pyridin-2-yl]amino]-N,N,4-trimethyl-pyridine-2-carboxamide], 0.0218 µM.
To `COc1cc(Nc2cc3cc(-c4cc(C)ncc4O[C@H]4CC[C@H](O)CC4)ccn3n2)cc(OC)c1C(=O)NC1CC1` [Example 245, N-cyclopropyl-4-[[5-[5-(4-hydroxycyclohexoxy)-2-methyl-4-pyridyl]pyrazolo[1,5-a]pyridin-2-yl]amino]-2,6-dimethoxy-benzamide] belongs 0.0239 µM.
